In patent US6866861B1, “Method and composition for enhancing milk component concentrations” (Land O'Lakes, Inc., priority 1999, dated 2005):

Tested on: cows
Experiment: Abomasal infusion of sorbitol in cows, milk component concentrations (Example 2)
Type: in vivo, cow
Conditions: for Ash / Fat / Lactose / Total Solids / True Protein: 100 g/cow/day abomasal, average of 3 cows
Description: To determine the weight percent total solids, wet basis, in a sample, the actual weight of total solids is determined by analyzing the sample in accordance with Method #925.23 (33.2.09) of Official Methods of Analysis, Association of Official Analytical Chemists (AOAC) (16th Ed., 1995). The weight percent total solids, wet basis, is then calculated by dividing the actual weight of total solids by the actual weight of the sample. The weight percent of true protein, wet basis, for a particular sample is calculated after first determining the wet basis weight percent of total Kjeldahl nitrogen and the wet basis weight percent of non-protein nitrogen in the sample. The wet basis weight percent of total Kjeldahl nitrogen in the sample is determined using the method referenced above. The wet basis weight percent of non-protein nitrogen (NPN) in the sample is determined in accordance with Method #991.21 (33.2.12) of Official Methods of Analysis, Association of Official Analytical Chemists (AOAC) (16th Ed., 1995). The weight percent of true protein, wet basis, in the sample is then determined by subtracting the wet basis weight percent of non-protein nitrogen in the sample from the wet basis weight percent of total Kjeldahl nitrogen in the sample. To determine the weight percent lactose, wet basis, in a liquid sample, the weight of the liquid sample is first determined. The actual weight of lactose in the liquid sample may then be determined using analysis kit number 176-303, that is available from Boehringer-Mannheim of Indianapolis, Ind. in accordance with the procedural instructions included with analysis kit number 176-303. The weight percent lactose, wet basis, in the liquid sample is then calculated by dividing the actual weight of lactose in the liquid sample by the actual weight of the liquid sample. To determine the weight percent fat, wet basis, in a sample, the actual weight of fat in the sample is determined in accordance with Method #974.09 (33.7.18) of Official Methods of Analysis, Association of Official Analytical Chemists (AOAC) (16th Ed., 1995). The weight percent fat, wet basis, is then calculated by dividing the actual weight of fat in the sample by the actual weight of the sample. In this example, sorbitol was abomasally infused into three different cows at a rate of 100 grams of sorbitol per cow per day during a 14 day test period. The sorbitol rations were mixed with water to facilitate infusion. The rations provided to the cows during the period extending from day 0, prior to abomasal infusion of sorbitol, through day 14 of the test period were the same. The only difference in feeding of the cows between day 0 and days 1-14 of the test period were that during days 1-14 the cows were abomasally infused with the dosage of 100 grams of sorbitol per cow per day. Milk from the three cows was collected and analyzed prior to infusion (on day 0) and also was collected and analyzed on the third, seventh and fourteenth day of the test period. The results presented in Table 2 below for each milk component for each particular day are averages for the milk collected from the three different cows. The net change for the different milk components presented in Table 2 was calculated by averaging the results of days 3, 7 and 14 for a particular milk component and subtracting the results presented for day 0 for the particular milk component.

[1] = milk, average of days 3, 7, 14 minus day 0

**Q.** Which results are given for `OC[C@@H](O)[C@@H](O)[C@H](O)[C@@H](O)CO` [sorbitol]?
**A.** weight percent of fat, true protein, and total solids in the milk (conclusion in words) (abomasal infusion, 14 day test period): net increase; Ash (milk, Day 3): 0.73 Wt. %; Fat (milk, Day 3): 4.59 Wt %; Lactose (milk, Day 3): 4.62 Wt. %; Total Solids (milk, Day 3): 13.00 Wt. %; True Protein (milk, Day 3): 3.06 Wt. %; Ash (milk, Day 7): 0.73 Wt. %; Fat (milk, Day 7): 3.78 Wt %; Lactose (milk, Day 7): 4.87 Wt. %; Total Solids (milk, Day 7): 12.40 Wt. %; True Protein (milk, Day 7): 3.01 Wt. %; Ash (milk, Day 14): 0.71 Wt. %; Fat (milk, Day 14): 4.33 Wt %; Lactose (milk, Day 14): 4.75 Wt. %; Total Solids (milk, Day 14): 12.88 Wt. %; True Protein (milk, Day 14): 3.09 Wt. %; Ash, Net Change [1]: no net change; Fat, Net Change [1]: +0.67 Wt %; Lactose, Net Change [1]: −0.13 Wt. %; Total Solids, Net Change [1]: +0.63 Wt. %; True Protein, Net Change [1]: +0.08 Wt. %
